The values that follow come from patent publication US8354436B2 (4SC Discovery GmbH, priority 2011, dated 2013).

Where two headings read alike, the source gives them in different places.

What all share (type): cell-based
Common to all, as to details: 48 hours

For experiment [1], the system named is PBMC from healthy human donors. Kind of experiment: T cell proliferation assay (PHA-stimulated human PBMC, BrdU ELISA). The essentials:
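Proliferation was quantified by BrdU ELISA 48 hours after starting culture of 1×10⁵ human PBMC per well with test compound and 2 μg/ml phytohaemagglutinin. Cells came from healthy donors via Ficoll separation and were kept in RPMI1640 with 10% dialysed heat-inactivated FCS.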
For orientation: Incorporation of labelled thymidine or its analogues reports DNA synthesis.

Experiment [2] relates to IL-17FF. Kind of experiment: IL-17FF production by PHA-stimulated human PBMC (human IL-17F ELI-Pair). An outline of the steps:
(§1)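 Healthy-donor PBMC (1×10^5 cells/well) activated with 2 μg/ml PHA and incubated with compounds for 48 h. Supernatant IL-17AA/AF read by Luminex BioPlex, IL-17AA, IL-17FF and IFN-γ by ELISA. Screening at 10, 1, 0.1 and 0.01 μM; IC50 from semilogarithmic titrations.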

The subject of experiment [3] is IFN-γ. Kind of experiment: IFN-γ production by PHA-stimulated human PBMC (OptEIA human IFN-g ELISA). An outline of the steps: as §1
On the technique in general: In an ELISA, binding on a coated surface is turned into a signal by an enzyme label.

Setting [4] is: PHA-stimulated human PBMC, column D, read-out: IC50 (Tcell proliferation).
Setting [5] is: PHA-stimulated human PBMC, column B, read-out: IC50 (IL-17FF).
The mark [6] stands for this setting: PHA-stimulated human PBMC, column C, read-out: IC50 (IFNγ).
Setting [7] is: human PBMC, 2 μg/ml PHA, read-out: D: IC50 (Tcell proliferation).
Where [8] appears, read: human PBMC, 2 μg/ml PHA, read-out: B: IC50 (IL-17FF).
Where [9] appears, read: human PBMC, 2 μg/ml PHA, read-out: C: IC50 (IFNγ).

Take `Fc1ccc(-n2ncc(-c3onc(-c4c(F)cccc4Cl)c3Br)c2C(F)(F)F)c(F)c1` [IB-24, 4-bromo-3-(2-chloro-6-fluorophenyl)-5-(1-(2,4-difluorophenyl)-5-(trifluoromethyl)-1H-pyrazol-4-yl)isoxazole]: the IC50 in experiment [1] (setting [4]), in experiment [2] (setting [5]) and in experiment [3] (setting [6]) was 1 to 10 µM each time.
On to `Cc1nnc(-c2c(-c3c(F)cccc3Cl)noc2-c2cnn(-c3cccc(Cl)c3)c2C(F)(F)F)o1` [Example B-4, 2-(3-(2-chloro-6-fluorophenyl)-5-(1-(3-chlorophenyl)-5-(trifluoromethyl)-1H-pyrazol-4-yl)isoxazol-4-yl)-5-methyl-1,3,4-oxadiazole], for which the IC50 in experiment [1] (setting [7]), in experiment [2] (setting [8]) and in experiment [3] (setting [9]) was under 0.01 µM each time.
Take `CCOC(=O)c1c(-c2c(F)cccc2Cl)noc1-c1cnn(-c2ccc(NC(C)=O)cc2)c1C(F)(F)F` [IB-99, ethyl 5-(1-(4-acetamidophenyl)-5-(trifluoromethyl)-1H-pyrazol-4-yl)-3-(2-chloro-6-fluorophenyl)isoxazole-4-carboxylate]: the IC50 in experiment [1] (setting [4]), in experiment [2] (setting [5]) and in experiment [3] (setting [6]) was 1 to 10 µM throughout.
For the molecule `COC(=O)c1c(-c2ccccc2F)noc1-c1cnn(-c2cccc(F)c2)c1C(F)(F)F` [Example I-92, methyl 3-(2-fluorophenyl)-5-(1-(3-fluorophenyl)-5-(trifluoromethyl)-1H-pyrazol-4-yl)isoxazole-4-carboxylate], the IC50 in experiment [1] (setting [4]), in experiment [2] (setting [5]) and in experiment [3] (setting [6]) was 0.1 to 1 µM throughout.
Take `COC(=O)c1c(-c2c(F)cccc2Cl)noc1-c1cnn(-c2ccc(F)cc2)c1C(F)(F)F` [Example I-3, methyl 3-(2-chloro-6-fluorophenyl)-5-(1-(4-fluorophenyl)-5-(trifluoromethyl)-1H-pyrazol-4-yl)isoxazole-4-carboxylate]: the results for the IC50 in experiment [1] (setting [4]), in experiment [2] (setting [5]) and in experiment [3] (setting [6]) were 0.01 to 0.1 µM, under 0.01 µM and under 0.01 µM, respectively.
`Nc1c(-c2c(F)cccc2Cl)noc1-c1cnn(-c2cccc(Cl)c2)c1C(F)(F)F` [IB-36, 3-(2-chloro-6-fluorophenyl)-5-(1-(3-chlorophenyl)-5-(trifluoromethyl)-1H-pyrazol-4-yl)isoxazol-4-amine]: the IC50 in experiment [1] (setting [4]), in experiment [2] (setting [5]) and in experiment [3] (setting [6]) was 0.1 to 1 µM throughout.
On to `Fc1ccccc1-n1ncc(-c2onc(-c3c(F)cccc3Cl)c2-c2cnco2)c1C(F)(F)F` [Example B-28, 3-(2-chloro-6-fluorophenyl)-5-(1-(2-fluorophenyl)-5-(trifluoromethyl)-1H-pyrazol-4-yl)-4-(oxazol-5-yl)isoxazole], for which the IC50 in experiment [1] (setting [7]), in experiment [2] (setting [8]) and in experiment [3] (setting [9]) was 0.1 to 1 µM in each case.
Consider `COC(=O)c1c(-c2ccccc2F)noc1-c1cnn(-c2cccc(Cl)c2)c1C(F)(F)F` [IB-77, methyl 5-(1-(3-chlorophenyl)-5-(trifluoromethyl)-1H-pyrazol-4-yl)-3-(2-fluorophenyl)isoxazole-4-carboxylate], for which the IC50 in experiment [1] (setting [4]), in experiment [2] (setting [5]) and in experiment [3] (setting [6]) was 0.01 to 0.1 µM each time.
For `CCOC(=O)c1c(-c2c(F)cccc2Cl)noc1-c1cnn(-c2cccc(S(N)(=O)=O)c2)c1C(F)(F)F` [IB-43, ethyl 3-(2-chloro-6-fluorophenyl)-5-(1-(3-sulfamoylphenyl)-5-(trifluoromethyl)-1H-pyrazol-4-yl)-isoxazole-4-carboxylate], the IC50 was in the range of 1 to 10 µM in experiment [1] (setting [4]), 0.1 to 1 µM in experiment [2] (setting [5]) and 1 to 10 µM in experiment [3] (setting [6]).
In the case of `COC(=O)c1c(-c2c(F)cccc2Cl)noc1-c1cnn(C(C)C)c1C(F)(F)F` [Example I-66, methyl 3-(2-chloro-6-fluorophenyl)-5-(1-isopropyl-5-(trifluoromethyl)-1H-pyrazol-4-yl)isoxazole-4-carboxylate], the IC50 lay within 1 to 10 µM in experiment [1] (setting [4]), 1 to 10 µM in experiment [2] (setting [5]) and 0.1 to 1 µM in experiment [3] (setting [6]).
Take `CC(C)OC(=O)c1c(-c2c(F)cccc2Cl)noc1-c1cnn(-c2ccncc2)c1C(F)(F)F` [IB-82, isopropyl 3-(2-chloro-6-fluorophenyl)-5-(1-(pyridin-4-yl)-5-(trifluoromethyl)-1H-pyrazol-4-yl)isoxazole-4-carboxylate]: the IC50 in experiment [1] (setting [4]), in experiment [2] (setting [5]) and in experiment [3] (setting [6]) was 0.01 to 0.1 µM in each case.
For the molecule `COC(=O)c1c(-c2c(Cl)cccc2Cl)noc1-c1cnn(-c2cccc(Cl)c2)c1C(F)(F)F` [IB-75, methyl 5-(1-(3-chlorophenyl)-5-(trifluoromethyl)-1H-pyrazol-4-yl)-3-(2,6-dichlorophenyl)isoxazole-4-carboxylate], the IC50 in experiment [1] (setting [4]), in experiment [2] (setting [5]) and in experiment [3] (setting [6]) was under 0.01 µM throughout.
Consider `CCOC(=O)c1c(-c2ccccc2Cl)noc1-c1cnn(-c2cccc(Cl)c2)c1C(F)(F)F` [IB-41, ethyl 3-(2-chlorophenyl)-5-(1-(3-chlorophenyl)-5-(trifluoromethyl)-1H-pyrazol-4-yl)-isoxazole-4-carboxylate], for which the IC50 was 0.01 to 0.1 µM in experiment [1] (setting [4]), under 0.01 µM in experiment [2] (setting [5]) and under 0.01 µM in experiment [3] (setting [6]).
As to `CN1CCN(C(=O)c2c(-c3c(F)cccc3Cl)noc2-c2cnn(-c3ccccc3F)c2C(F)(F)F)CC1` [Example I-17, (3-(2-chloro-6-fluorophenyl)-5-(1-(2-fluorophenyl)-5-(trifluoromethyl)-1H-pyrazol-4-yl)isoxazol-4-yl)(4-methylpiperazin-1-yl)methanone], the IC50 was in the range of 1 to 10 µM in experiment [1] (setting [4]), 0.1 to 1 µM in experiment [2] (setting [5]) and 0.1 to 1 µM in experiment [3] (setting [6]).
With `CNC(=S)c1c(-c2c(F)cccc2Cl)noc1-c1cnn(-c2ccc(F)cc2)c1C(F)(F)F` [Example I-76, 3-(2-chloro-6-fluorophenyl)-5-(1-(4-fluorophenyl)-5-(trifluoromethyl)-1H-pyrazol-4-yl)-N-methylisoxazole-4-carbothioamide], the IC50 in experiment [1] (setting [4]) was 1 to 10 µM; in experiment [2] (setting [5]), 1 to 10 µM; in experiment [3] (setting [6]), 0.1 to 1 µM.
`O=C(c1c(-c2c(F)cccc2Cl)noc1-c1cnn(-c2cccc(Cl)c2)c1C(F)(F)F)N1CCOCC1` [IB-35, (3-(2-chloro-6-fluorophenyl)-5-(1-(3-chlorophenyl)-5-(trifluoromethyl)-1H-pyrazol-4-yl)isoxazol-4-yl)(morpholino)methanone]: the IC50 lay in the range of 1 to 10 µM in experiment [1] (setting [4]), 0.1 to 1 µM in experiment [2] (setting [5]) and 0.1 to 1 µM in experiment [3] (setting [6]).
As for `COC(=O)c1c(-c2c(F)cccc2Cl)noc1-c1cnn(-c2ccccn2)c1C(F)(F)F` [Example I-84, methyl 3-(2-chloro-6-fluorophenyl)-5-(1-(pyridin-2-yl)-5-(trifluoromethyl)-1H-pyrazol-4-yl)isoxazole-4-carboxylate], the IC50 in experiment [1] (setting [4]), in experiment [2] (setting [5]) and in experiment [3] (setting [6]) was under 0.01 µM each time.
Take `CSC(=O)c1c(-c2c(F)cccc2Cl)noc1-c1cnn(-c2cccnc2)c1C(F)(F)F` [IB-68, S-methyl 3-(2-chloro-6-fluorophenyl)-5-(1-(pyridin-3-yl)-5-(trifluoromethyl)-1H-pyrazol-4-yl)isoxazole-4-carbothioate]: the IC50 is 0.01 to 0.1 µM in experiment [1] (setting [4]), under 0.01 µM in experiment [2] (setting [5]) and under 0.01 µM in experiment [3] (setting [6]).
